Patent US20230324392A1, “METHODS AND COMPOSITIONS FOR TARGETING CYTOSOLIC DSDNA SIGNALING IN CHROMOSOMALLY UNSTABLE CANCERS” (MEMORIAL SLOAN KETTERING CANCER CENTER, priority 2020, published 2023)
“And” between values parts separate entries of the source, which are not always exact repeats. Equal entries are not always repeated.

Key:
[1] = tested on: B16F10, 4T1 or CT26 cells; assay: Cell proliferation assay; type: cell-based, mouse; conditions: C176 at 1 μM; 12-48 hours
Procedure: Cell proliferation assay: Cell proliferation was determined by seeding of 5×10^3 B16F10, 4T1 or CT26 cells in 6 well plates in triplicate. Cells were treated with C176 at 1 μM (Probechem, China) or DMSO control. Thereafter cells were counted in triplicate at 12, 24, 36, and 48 hours using trypan blue staining and the EVE™ automated cell counter (NanoEnTek, South Korea).

[2] = tested on: B16F10, 4T1, and CT26 cells; assay: xCELLigence assay for cell invasion; type: cell-based, mouse; conditions: C176 at 1 μM; all three metastatic cancer cell lines
Procedure: xCELLigence assayfor cell invasion: Assessment of the impact of STING inhibition on cell invasion was conducted using the xCELLigence system CIM plates (ACEA Biosciences, San Diego, CA). The upper chamber was coated with 1 mg/ml of growth factor complete Matrigel (#356234, Corning, UK) made up in serum free media (SFM) and incubated at 37° C. for 4 hours to allow polymerisation. A total of 4×10^4 cells in serum-free media were seeded into the upper chamber insert with C176 at 1 μM (Probechem, China) or DMSO control. The lower chamber was filled with complete media. The CIM plates were incubated at 1 hour at 37° C. and 5% C02 for cell attachment. Plates were then monitored using the xCELLigence system. Changes in impedance resulting from cell invasion to the underside of wells were recorded every 15 minutes and monitored for a total of 60 hours.

[3] = tested on: B16F10 cells; assay: Tail vein inoculation of B16F10 cells in C57BL/6 mice, survival; type: in vivo, mouse
Procedure: (§1) Animal metastasis studies: Animal experiments were performed in accordance with protocols approved by the MSKCC Institutional Animal Care and Use Committee. […] There was no need to randomize animals. Investigators were not blinded to group allocation. For tail vein injections, 5×10^4 4T1, 2.5×10^4 B16F10, or 10^5 CT26 cells were injected into the tail vein of 6-7-week old BALB/c (4T1 and CT26) or C57BL/6 (B16F10) mice. Metastasis was primarily assessed through overall survival. Overall survival endpoint was met when the mice died or met the criteria for euthanasia under the IACUC protocol. […] Surface lung metastases were assessed at endpoint by direct visual examination after euthanasia at which points lungs were perfused and fixed in 4% paraformaldehyde (4T1 and B16F10 experiments) or stained using India-ink (CT26 experiments). Furthermore, lung metastasis after injection of 4T1 cells was qualitatively assessed using routine hematoxylin and eosin (H&E) staining. […] Primary tumors were surgically excised on day 7 after implantation and metastatic dissemination was assessed by monitoring overall survival or on day 30 through quantification of surface lung metastases upon euthanasia. The length (L) and width (W) of the primary tumors were measured using calipers. Tumor size was calculated according to the following formula: L*W2/2. […]

[4] = tested on: STING-KO B16F10 cells; assay: Tail vein inoculation of STING-KO B16F10 cells in C57BL/6 mice, survival; type: in vivo, mouse; conditions: C57BL/6 mice inoculated with STING-KO B16F10 cells
Procedure: as §1

[5] = Tolerability of prolonged daily C-176 treatment, survival and necropsy; type: in vivo, mouse
Text: In B16F10-bearing animals, nearly 30% of the treated group had no evidence of disease at 98 days (FIG. 4A). […] Thus, the therapeutic effect of the STING inhibitors on metastasis is primarily mediated through inhibition of cancer cell-intrinsic STING.

[6] = Blood counts of mice treated with C-176; type: in vivo, mouse; conditions: for NEUT: reference range 9.86-39.11; for LYMPH: reference range 48.81-83.82
[7] = automated differential, animals 1, 2
[8] = complete blood count, animals 1, 2
[9] = manual differential, animals 1, 2

SMILES: O=C(Nc1ccc(I)cc1)c1ccc([N+](=O)[O-])o1 [C-176]
- cellular proliferation [1]: did not impact cellular proliferation
- invasion [2]: significant reductions
- survival of tumor bearing mice ([3]; B16F10, C57BL/6, daily IP, vs vehicle): significantly prolonged survival
- treated group with no evidence of disease ([3]; B16F10-bearing animals, at 98 days): ~30%
- survival advantage beyond STING KO [4]: did not provide an additional survival advantage
- end-of-treatment necropsy ([5]; compared to vehicle-treated animals): no distinct pathologic abnormalities
- tolerability / clinically evident toxicity ([5]; prolonged daily treatment, vs vehicle-treated animals): well tolerated and did not lead to any clinically evident toxicity
- blood counts and blood chemistries ([5]; summary of Tables 9 and 10): within normal limits
- baseline cortisol levels ([5]; vs vehicle): lower baseline cortisol levels
- BASO ([6]; automated differential, animals 1, 2, reference range 0.00-1.84): 0% and 0.1%
- EO# ([6]; automated differential, animals 1, 2, reference range 0.01-0.49): 0.1 K/uL and 0.16 K/uL
- MONO# ([6]; automated differential, animals 1, 2, reference range 0.21-1.37): 0.22 K/uL and 0.25 K/uL
- NEUT# ([6]; automated differential, animals 1, 2, reference range 0.58-3.83): 2.98 K/uL and 4.69 K/uL
- LYMPH# ([6]; automated differential, animals 1, 2, reference range 2.22-11.56): 3.35 K/uL and 3.14 K/uL
- MONO ([6]; automated differential, animals 1, 2, reference range 3.29-14.33): 3.3% and 3%
- WBC# ([6]; automated differential, animals 1, 2, reference range 3.48-14.84): 6.65 K/uL and 8.25 K/uL
- NEUT [6, 7]: 44.8% and 56.9%
- LYMPH [6, 7]: 50.4% and 38.1%
- EO ([6]; automated differential, animals 1, 2, reference range printed 7 0.07-4.91^): 1.5% and 1.9%
- PDW [6, 8]: 9.9 fL and 10.3 fL
- RDW-SD [6, 8]: 29.1 fL and 29.6 fL
- RET ([6]; complete blood count, animals 1, 2, reference range 2.56-4.56): 4.04% and 5.29%
- MPV ([6]; complete blood count, animals 1, 2, reference range 4.6-5.9): 7 fL and 7.3 fL
- RBC ([6]; complete blood count, animals 1, 2, reference range 6.93-12.24): 10.18 M/uL and 9.5 M/uL
- HGB ([6]; complete blood count, animals 1, 2, reference range 12.4-20.5): 15.3 g/dL and 14.4 g/dL
- MCH ([6]; complete blood count, animals 1, 2, reference range 13.0-17.6): 15 pg and 15.2 pg
- RDW-CV ([6]; complete blood count, animals 1, 2, reference range 16.9-23.5): 25.4% and 24%
- MCHC ([6]; complete blood count, animals 1, 2, reference range 23.3-33.1): 32.3 g/dL and 31.9 g/dL
- HCT ([6]; complete blood count, animals 1, 2, reference range 42.1-68.3): 47.3% and 45.2%
- MCV ([6]; complete blood count, animals 1, 2, reference range 50.7-64.4): 46.5 fL and 47.6 fL
- RET# ([6]; complete blood count, animals 1, 2, reference range 294-444): 411.3 K/uL and 502.6 K/uL
- PLT ([6]; complete blood count, animals 1, 2, reference range 420-1698): 1137 K/uL and 1026 K/uL
- BAND ([6]; manual differential, animal 1): 1%
- EO ([6]; manual differential, animals 1, 2, reference range 0.07-4.91): 2% and 1%
- NEUT [6, 9]: 45% and 57%
- LYMPH [6, 9]: 52% and 42%
